{"source": "patent US20120004233A1", "about": "“TRICYCLIC COMPOUNDS AS ANTAGONISTS OF PROSTAGLANDIN D2 RECEPTORS” (AMIRA PHARMACEUTICALS, INC, priority 2009, published 2012)", "key": {"human DP1 receptor": {"molecular_target": "T1, human DP1 receptor (Homo sapiens, UniProt Q13258)", "T1 construct": "tissue Biological Specialty Corporation; host or cells: human platelets, membrane preparation", "T1 sequence (Q13258 1-359)": "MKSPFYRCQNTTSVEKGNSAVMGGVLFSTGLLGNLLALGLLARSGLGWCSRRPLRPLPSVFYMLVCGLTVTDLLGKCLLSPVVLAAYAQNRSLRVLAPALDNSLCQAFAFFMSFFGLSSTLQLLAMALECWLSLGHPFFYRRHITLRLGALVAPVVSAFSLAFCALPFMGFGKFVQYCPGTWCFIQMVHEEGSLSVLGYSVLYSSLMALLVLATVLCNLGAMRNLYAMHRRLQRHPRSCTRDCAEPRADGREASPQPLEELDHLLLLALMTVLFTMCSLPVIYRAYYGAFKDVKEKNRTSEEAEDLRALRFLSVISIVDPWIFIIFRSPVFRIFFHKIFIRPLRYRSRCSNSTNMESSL", "assay": "DP1 radioligand membrane binding assay using [3H]BWA868C", "settings": "human platelet membranes; read-out: hDP1", "method": "The ability of a compound to bind to the human DP1 receptor is evaluated via a radioligand membrane binding assay using the DP1 selective synthetic ligand [^3H]BWA868C. Packed human platelets (Biological Specialty Corporation), are resuspended in 6 volumes of Hepes/HBSS buffer (10 mM Hepes, 1 mM DTT in Hanks Balanced Salt Solution (HBSS)), lysed and centrifuged at 75,000×g to pellet the membranes. Membranes are resuspended in Hepes/HBSS buffer to approximately 12 mg protein/ml. Membranes (20 μg protein/well) are incubated in 96-well plates with 2 nM [^3H]BWA868C and test compound in Assay Buffer (50 mM Hepes, 10 mM MnCl2, 1 mM EDTA, plus or minus 0.2% human serum albumin, pH 7.4) for 60 minutes at room temperature. The reactions are terminated by rapid filtration through Whatman GF/C glass fibre filter plates. The filter plates are pre-soaked in 0.33% polethylenimine for 30 minutes at room temperature then washed in Wash Buffer (50 mM Hepes, 0.5 M NaCl pH 7.4) prior to harvesting. […] Scintillant is then added to the plates and the radioactivity retained on the filters is determined on a Packard TopCount (Perkin Elmer). Specific binding is determined as total radioactive binding minus non-specific binding in the presence of 10 μM BW A868C. IC50 values are determined using GraphPad prism analysis of drug titration curves."}, "human DP2 receptor": {"molecular_target": "T2, human DP2 receptor (Homo sapiens, UniProt Q9Y5Y4)", "T2 construct": "expressed in transfected cells", "T2 sequence (Q9Y5Y4 1-395)": "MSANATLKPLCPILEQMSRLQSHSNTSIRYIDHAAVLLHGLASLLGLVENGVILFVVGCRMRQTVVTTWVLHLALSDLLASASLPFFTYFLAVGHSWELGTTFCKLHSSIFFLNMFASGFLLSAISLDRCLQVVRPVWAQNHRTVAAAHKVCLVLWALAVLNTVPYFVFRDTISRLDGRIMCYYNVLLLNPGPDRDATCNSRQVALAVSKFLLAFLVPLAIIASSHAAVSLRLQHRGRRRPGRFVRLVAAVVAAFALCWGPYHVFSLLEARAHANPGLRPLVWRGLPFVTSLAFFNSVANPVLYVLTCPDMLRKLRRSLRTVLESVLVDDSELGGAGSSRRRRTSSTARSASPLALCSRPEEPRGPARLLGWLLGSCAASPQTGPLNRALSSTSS", "assay": "DP2/CRTH2 radioligand binding assay using [3H]PGD2", "settings": "membranes of HEK293 cells expressing recombinant human DP2", "method": "The ability of a compound to bind to the human DP2 receptor is assessed via a radioligand binding assay using [^3H]PGD2. HEK293 cells stably expressing recombinant human DP2 are resuspended in 10 mM Hepes, 7.4 containing 1 mM DTT, lysed and centrifuged at 75,000×g to pellet the membranes. The membranes are resuspended in 10 mM Hepes, 7.4 containing 1 mM DTT and 10% glycerol to approximately 5 mg protein/ml. Membranes (2-10 μg protein/well) are incubated in 96-well plates with 1 nM [^3H]PGD2 and test compound in Assay Buffer (50 mM Hepes, 10 mM MnCl2, 1 mM EDTA, plus or minus 0.2% human serum albumin, pH 7.4) for 60 minutes at room temperature. The reactions are terminated by rapid filtration through Whatman GF/C glass fibre filter plates. The filter plates were pre-soaked in 0.33% polythylenimine for 30 minutes at room temperature then washed in Wash Buffer (50 mM Hepes, 0.5 M NaCl pH 7.4) prior to harvesting. After harvesting, the filter plates are washed 3 times with 1 ml cold Wash Buffer then dried. Scintillant is then added to the plates and the radioactivity retained on the filters is determined on a Packard TopCount (Perkin Elmer). Specific binding is determined as total radioactive binding minus non-specific binding in the presence of 10 μM PGD2. IC50s were determined using GraphPad prism analysis of drug titration curves."}, "[1]": {"settings": "plus 0.2% human serum albumin, read-out: hDP2 μM (+HSA)"}, "[2]": {"settings": "without human serum albumin, read-out: hDP2"}}, "note": "Like-named read-outs stand apart in the source and are kept apart here.", "data": [{"smiles": "CN(C1CCc2c(CC(=O)O)c3ccccn3c2C1)S(=O)(=O)c1ccc(F)cc1", "note": "(stereo not drawn) [Compound 1-1, {3-[(4-Fluoro-benzenesulfonyl)-methyl-amino]-1,2,3,4-tetrahydro-pyrido[1,2-a]indol-10-yl}-acetic acid]", "values": [{"measurement": "IC50", "setting": "human DP1 receptor", "result": "> 1000", "unit": "nM"}, {"measurement": "IC50", "setting": "human DP2 receptor; [1]", "result": "< 300", "unit": "nM"}, {"measurement": "IC50", "setting": "human DP2 receptor; [2]", "result": "< 300", "unit": "nM"}]}, {"smiles": "CN(C1CCc2c(c3ccccn3c2CC(=O)O)C1)S(=O)(=O)c1ccc(F)cc1", "note": "(stereo not drawn) [Compound 2-1, {9-[(4-Fluoro-benzenesulfonyl)-methyl-amino]-7,8,9,10-tetrahydro-pyrido[2,1-a]isoindol-6-yl}-acetic acid]", "values": [{"measurement": "IC50", "setting": "human DP1 receptor", "result": "> 1000", "unit": "nM"}, {"measurement": "IC50", "setting": "human DP2 receptor; [1]", "result": "< 300", "unit": "nM"}, {"measurement": "IC50", "setting": "human DP2 receptor; [2]", "result": "< 300", "unit": "nM"}]}]}
